Values of other authors as cited in US9579322B2, “Methods for treating neurologic disorders” (EIP Pharma, LLC, priority 2014, dated 2017).

Conditions: animals; cited from earlier work

## NC(=O)c1ccc(N(C(N)=O)c2c(F)cccc2F)nc1-c1ccc(F)cc1F [VX-702]
  blood brain barrier penetration: non-blood-brain-barrier-penetrant
